The source of these data is patent US10874108B2, “Anti-microbial compositions” (5D HEALTH PROTECTION GROUP LTD, priority 2016, dated 2020).

Read-outs that look alike come from different tables or passages of the source.

Data set [1] has as its system cells.
Data set [2] in a line: Displacement of metals from EDTA complexes by physiological saline. The class given is physicochemical. The protocol: Adding saline to the suspension of Ag4(EDTA), the suspension quickly precipitated a solid (AgCl). The precipitate was filtered off, washed with deionized water 4 times; and then dried in a vacuum oven at 50° C. in a dark flask to avoid exposure to direct light.
The displacement experiment described above was repeated for compounds 1-4 to provide the percent of the displacement of silver, copper, zinc from the EDTA complexes by physiological saline.

For data set [3], the system named is S. aureus 24-hour CDC biofilms. Nature of the data set: Colonies after exposure of 24-hour CDC biofilms to EDTA compounds. The class given is cell-based.
Data set [4] deals with P. aeruginosa 24-hour CDC biofilms. The description is as above. The class given is cell-based.
Data set [5] concerns P. aeruginosa biofilms. Nature of the data set: CDC bioreactor biofilm LR/kill, EDTA compounds at 100 ppm silver. To be noted: 100 ppm of silver, exposed 24 hours. The class given is cell-based. The protocol:
(§1) Microbial cultures were exposed to compounds for 24 hours. Compounds were diluted according to 100 ppm of silver. Biofilms were formed using the CDC bioreactor. Samples were performed in triplicate.

In data set [6] the test system is S. aureus biofilms. Described as above. The class given is cell-based. To be noted: 100 ppm of silver, exposed 24 hours. Here is the method: as §1
Data set [7] deals with cells. Nature of the data set: Indirect cytotoxicity, agar diffusion method.
In data set [8] the test system is cells. Nature of the data set: Direct cytotoxicity, Neutral Red Uptake assay.
Data set [9] concerns P. aeruginosa 24-hour biofilm. The protocol: (§2) Minimum inhibitory concentration (MIC), minimum biocidal concentration (MBC) and minimum biofilm eradication (MBEC) were determined. Values represent a percentage of the stock antimicrobial solution (8%).
For data set [10], the system named is S. aureus 24-hour biofilm. Here is the method:
as §2

Data set [11] relates to P. aeruginosa biofilms. The conditions noted are these: 4%. The protocol: (§3) The Mean Log10 density of untreated controls was calculated (±standard deviation).
The subject of data set [12] is S. aureus biofilms. To be noted: 4%. Here is the method: as §3
The subject of data set [13] is E. faecalis ATCC 29212 biofilm. Nature of the data set: MBEC model (ASTM E2799), liquid formulas. The class given is cell-based. The conditions noted are these: 4%, treated 24 hours. Here is the method: (§4) The MBEC model (ASTM E2799) was used to assess the anti-biofilm efficacy of the liquid formulas. Biofilms were grown on polystyrene pegs in the MBEC model for either 24 or 48 hours before treatment. Using the liquid form of the EDTA complexes 24- and 48-hour biofilms were tested (Table 20).
(§5) 24- and 48-hour biofilms were formed using MBEC plate method and treated for 24 hours. Technical replicates n=3. Log reduction (LR) values show±standard error (SE) of LR value.

For data set [14], the system named is P. aeruginosa NCTC 10662 biofilm. Nature of the data set: MBEC model (ASTM E2799), liquid formulas. To be noted: 4%, treated 24 hours; for LR: hydrate. The class given is cell-based. Here is the method: as §4, §5
The subject of data set [15] is S. aureus ATCC 29213 biofilm. Nature of the data set: MBEC model (ASTM E2799), liquid formulas. The class given is cell-based. The conditions noted are these: 4%, treated 24 hours. The protocol: as §4, §5
Data set [16] relates to S. aureus MRSA BAA-43 biofilm. Nature of the data set: MBEC model (ASTM E2799), liquid formulas. The class given is cell-based. To be noted: 4%, treated 24 hours. The protocol:
as §4, §5

Data set [17] deals with S. epidermidis ATCC 35984 biofilm. Nature of the data set: MBEC model (ASTM E2799), liquid formulas. The class given is cell-based. To be noted: 4%, treated 24 hours. Here is the method:
as §4, §5

The mark [18] stands for this setting: 24-Hour Biofilms, Treatment Time 1.
The mark [19] stands for this setting: 24-Hour Biofilms, Treatment Time 5.
Where [20] appears, read: 24-Hour Biofilms, Treatment Time 15.
[21] abbreviates: 72-Hour Biofilms, Treatment Time 1.
The mark [22] stands for this setting: 72-Hour Biofilms, Treatment Time 5.
Setting [23] is: 72-Hour Biofilms, Treatment Time 15.

Take `Oc1ccccc1` [Phenol]: in the data set with cells [1], the “Lysis Index” value came to 3 and the “Zone Index” value is reported as 5.
As for `O=C([O-])CN(CCN(CC(=O)[O-])CC(=O)[O-])CC(=O)[O-].[Ag+].[Ag+].[Cu+2]` [Compound 2, Ag2CuEDTA], in data set [2], the “Displacement (%) Copper” value was 41.37 ± 6.92%. In addition, the “Displacement (%) Silver” value in [2] is given as 77.99 ± 3.90%. Also, the “Number of colonies detected” value in [3] and in data set [4] was 0 Cfu/ml in each case. The “Kill %” value with P. aeruginosa biofilms [5] was determined as 99.95%; with S. aureus biofilms [6], 99.99%. Besides, the LR in the data set on P. aeruginosa biofilms [5] came out at 3.31 ± 0.01; in the data set with S. aureus biofilms [6], 4.0 ± 0.20. In addition, the “Lysis Index” value in the data set with cells [7] (25 ppm), in the data set on cells [7] (50 ppm) and with cells [7] (100 ppm) was 1 each time. Further, the “Zone Index” value in the data set on cells [7] (25 ppm), in the data set with cells [7] (50 ppm) and in the data set on cells [7] (100 ppm) was 2 each time. Further, the Interpretation entry in the data set on cells [8] (25 ppm) was “Non cytotoxic (if the percentage viability is less than 70% of the untreated control, then the substance is considered cytotoxic)”; with cells [8] (50 ppm) it was “Non cytotoxic (if the percentage viability is less than 70% of the untreated control, then the substance is considered cytotoxic)”; in the data set on cells [8] (100 ppm), “Non cytotoxic (if the percentage viability is less than 70% of the untreated control, then the substance is considered cytotoxic)”. Moreover, the results for the “Percentage of Control/Percentage Viability (%)” value with cells [8] (25 ppm), in the data set with cells [8] (50 ppm) and in the data set with cells [8] (100 ppm) were 72.21 ± 3.74%, 72.01 ± 7.41% and 72.09 ± 17.57%, respectively.
`O=C([O-])CN(CCN(CC(=O)[O-])CC(=O)[O-])CC(=O)[O-].[Ag+].[Cu+2].[Na+]` [Compound 1, AgCuNaEDTA]: in data set [2], the “Displacement (%) Copper” value stood at 53.49 ± 5.56%. The “Displacement (%) Silver” value in data set [2] was determined as 81.37 ± 4.29%. Besides, the “Kill %” value worked out at 99.99% in the data set on P. aeruginosa biofilms [5] and 100% in the data set with S. aureus biofilms [6]. Moreover, the LR turned out to be 3.88 ± 0.15 in the data set on P. aeruginosa biofilms [5] and 3.5 with P. aeruginosa biofilms [5] (listed as Ag/Cu/NaEDTA). For the same compound, the “Lysis Index” value in the data set with cells [7] (25 ppm), in the data set with cells [7] (50 ppm) and with cells [7] (100 ppm) was 1 in each case. Besides, the “Zone Index” value with cells [7] (25 ppm) was 2; in the data set with cells [7] (50 ppm), 3; in the data set with cells [7] (100 ppm) it was 3. The Interpretation entry in the data set on cells [8] (25 ppm) is “Cytotoxic (if the percentage viability is less than 70% of the untreated control, then the substance is considered cytotoxic)”; in the data set with cells [8] (50 ppm), “Cytotoxic (if the percentage viability is less than 70% of the untreated control, then the substance is considered cytotoxic)”; with cells [8] (100 ppm), “Cytotoxic (if the percentage viability is less than 70% of the untreated control, then the substance is considered cytotoxic)”. Further, the results for the “Percentage of Control/Percentage Viability (%)” value with cells [8] (25 ppm), with cells [8] (50 ppm) and in the data set with cells [8] (100 ppm) were 51.54 ± 9.44%, 53.66 ± 9.48% and 52.57 ± 8.97%, respectively.
Take `O=C([O-])CN(CCN(CC(=O)[O-])CC(=O)[O-])CC(=O)[O-].[Cu+2].[Na+].[Na+]` [Cu—Na-EDTA, reference compound]: the “Number of colonies detected” value in [3] and in [4] was 0 Cfu/ml in each case.
For the compound `O.O=C([O-])CN(CCN(CC(=O)[O-])CC(=O)[O-])CC(=O)[O-].[Na+].[Na+].[Na+].[Na+]` [Tetrasodium EDTA, ethylenediaminetetraacetic acid tetrasodium salt hydrate], the MBC in [9] (1 min) is on record as 50 percentage of the stock antimicrobial solution (8%); in data set [9] (30 min), 50 percentage of the stock antimicrobial solution (8%); in data set [9] (1 h), 25 percentage of the stock antimicrobial solution (8%); in [9] (24 h) it was 6.25 percentage of the stock antimicrobial solution (8%); in data set [10] (1 min) it was 50 percentage of the stock antimicrobial solution (8%); in [10] (30 min), 50 percentage of the stock antimicrobial solution (8%). For the same compound, the results for the MBC in [10] (1 h) and in data set [10] (24 h) were 25 percentage of the stock antimicrobial solution (8%) and 6.25 percentage of the stock antimicrobial solution (8%), respectively. For the same compound, the MIC is recorded as 25 percentage of the stock antimicrobial solution (8%) in data set [9] (1 min); 12.5 percentage of the stock antimicrobial solution (8%) in data set [9] (30 min); 25 percentage of the stock antimicrobial solution (8%) in data set [9] (1 h); 6.25 percentage of the stock antimicrobial solution (8%) in data set [9] (24 h); 25 percentage of the stock antimicrobial solution (8%) in [10] (1 min); 12.5 percentage of the stock antimicrobial solution (8%) in [10] (30 min). For the same compound, the MIC was 25 percentage of the stock antimicrobial solution (8%) in data set [10] (1 h) and 6.25 percentage of the stock antimicrobial solution (8%) in data set [10] (24 h). The MBEC in data set [9] (1 h), in data set [9] (24 h), in data set [10] (1 h) and in data set [10] (24 h) was 6.25 percentage of the stock antimicrobial solution (8%) throughout. Further, the “Kill %” value with P. aeruginosa biofilms [11] (setting [18]) turned out to be 83.018%; with P. aeruginosa biofilms [11] (setting [19]) it was 97.92%; with P. aeruginosa biofilms [11] (setting [20]), 99.51%; in the data set with P. aeruginosa biofilms [11] (setting [21]), 99.22%; with P. aeruginosa biofilms [11] (setting [22]) it was 99.56%; in the data set with P. aeruginosa biofilms [11] (setting [23]) it was 95.07%. Moreover, the “Kill %” value with S. aureus biofilms [12] (setting [18]) came out at 97.41%; in the data set with S. aureus biofilms [12] (setting [19]), 59.90%; in the data set on S. aureus biofilms [12] (setting [20]), 80.51%; with S. aureus biofilms [12] (setting [21]), 54.09%; in the data set with S. aureus biofilms [12] (setting [22]), 79.86%; in the data set on S. aureus biofilms [12] (setting [23]) it was 80.25%. The Kill % in [13] (24-Hour Biofilm) is on record as 100%; in data set [13] (48-Hour Biofilm), 100%; in [14] (24-Hour Biofilm) it was 99.9998%; in data set [14] (48-Hour Biofilm), 99.9999%; in data set [15] (24-Hour Biofilm) it was 100%; in data set [15] (48-Hour Biofilm), 100%. Moreover, the Kill % in data set [16] (24-Hour Biofilm), in [16] (48-Hour Biofilm), in [17] (24-Hour Biofilm) and in data set [17] (48-Hour Biofilm) was 100% in each case. The LR turned out to be 0.77 ± 0.08 in the data set with P. aeruginosa biofilms [11] (setting [18]); 1.68 ± 0.05 in the data set with P. aeruginosa biofilms [11] (setting [19]); 2.31 ± 0.10 in the data set with P. aeruginosa biofilms [11] (setting [20]); 2.10 ± 0.05 with P. aeruginosa biofilms [11] (setting [21]); 2.35 ± 0.02 with P. aeruginosa biofilms [11] (setting [22]); 1.31 ± 0.12 in the data set on P. aeruginosa biofilms [11] (setting [23]). For the same compound, the LR with S. aureus biofilms [12] (setting [18]) was determined as 1.59 ± 1.56; in the data set on S. aureus biofilms [12] (setting [19]) it was 0.40 ± 0.05; in the data set on S. aureus biofilms [12] (setting [20]), 0.71 ± 0.11; with S. aureus biofilms [12] (setting [21]) it was 0.34 ± 0.37; in the data set with S. aureus biofilms [12] (setting [22]), 0.70 ± 0.05; in the data set with S. aureus biofilms [12] (setting [23]), 0.70 ± 0.02. Besides, the LR in [13] (24-Hour Biofilm) is recorded as 6.35; in data set [13] (48-Hour Biofilm), 6.40; in data set [14] (24-Hour Biofilm), 5.94±3.43; in data set [14] (24-Hour Biofilm, listed as tEDTA) it was 5.94 ± 3.43; in [14] (48-Hour Biofilm), 6.99±4.04; in [14] (48-Hour Biofilm, listed as tEDTA), 6.99 ± 4.04. Also, the LR stood at 6.44 in data set [15] (24-Hour Biofilm); 6.50 in data set [15] (48-Hour Biofilm); 5.40 in [16] (24-Hour Biofilm); 6.43 in data set [16] (48-Hour Biofilm); 6.09 in [17] (24-Hour Biofilm); 6.41 in data set [17] (48-Hour Biofilm).
